The record followed here is patent US10154992B2, “Compounds and methods for treating HIV infection” (THE REGENTS OF THE UNIVERSITY OF CALIFORNIA, priority 2016, dated 2018).

Where only a bound is given, the exact number is not on record here.

Tested on in one data set: not listed separately
The data set is described as follows: MTT cell viability run in parallel with the Tat-hybrid assay. The data set is classed as cell-based. The note with it: human, Tat-hybrid reporter cell lines (HeLa); Table 5; read-out: Tat hybrid TC50. As for the experimental part:
(§1) Cells were counted and plated into white 384-well or 96-well cell-culture treated assay plates and compounds were added. After 48 hours, the cells were prepared for luminescence assays that were performed on a plate reader (Tecan Evolution or MD Analyst). The cytotoxicity of each compound was determined in parallel via MTT-based cell viability assays.
(§2) Tat hybrid reporter assay. […] Previously characterized thienopyridines and diaminoacridine were used as controls. Cells were counted and plated into white 384-well cell-culture treated assay plates and compounds were added. After 48 hours, the cells were prepared for lumincescence assays that were performed on a plate reader (Tecan Evolution or MD Analyst). The cytotoxicity of each compound was determined in parallel via MTT-based cell viability assays. […]
With `Cn1cc(CC(=O)N2CCN(c3cncc4sc(C(N)=O)c(N)c34)CC2)c2ccccc21`, the CC50 at 48 h is under 40 µM. Same read-out and setting: then `NC(=O)c1sc2cncc(N3CCN(c4ccccc4O)CC3)c2c1N`, with under 40 µM. The same measure, in the same setting: to `CC(C)c1n[nH]c2c1CN(c1cncc3sc(C(N)=O)c(N)c13)CC2` belongs under 40 µM; to `NC(=O)c1sc2cncc(N3CCCC(c4nc5ccccc5o4)C3)c2c1N` (centres unmarked), under 40 µM; to `NC(=O)c1sc2cncc(-c3ccncc3)c2c1N`, over 40 µM. For the molecule `CN(C=O)c1ccc(C(=O)N2CCN(c3cncc4sc(C(N)=O)c(N)c34)CC2)cc1`, the CC50 at 48 h is under 40 µM.

For `Cc1ccc(C(=O)N2CCN(c3cncc4sc(C(N)=O)c(N)c34)CC2)cn1`, the CC50 at 48 h was under 40 µM. Still for that read-out and setting: then `COc1ccc(C(=O)N2CCN(c3cncc4sc(C(N)=O)c(N)c34)CC2)cc1F`, with under 40 µM. For the molecule `NC(=O)c1sc2cncc(-c3cncc4ccccc34)c2c1N`, the CC50 at 48 h was over 40 µM. Same read-out and setting: to `NC(=O)c1sc2cncc(-c3cccc(-c4ccccc4)c3)c2c1N` belongs under 40 µM; to `CC(=O)N1CCN(c2cncc3sc(C(N)=O)cc23)CC1`, over 40 µM. On the same count and under the same terms, to `CN1CCN(c2cncc3sc(C(N)=O)c(N)c23)CC1` belongs under 40 µM; to `CS(=O)(=O)c1ccc(C(=O)N2CCN(c3cncc4sc(C(N)=O)c(N)c34)CC2)cc1`, under 40 µM. For `Cc1noc(C)c1C(=O)N1CCN(c2cncc3sc(C(N)=O)c(N)c23)CC1`, the CC50 at 48 h is under 40 µM.

A further data set has as its system Tat-hybrid reporter cell lines (HeLa). The data set is described as above. The data set is classed as cell-based. The note with it: Table 6; at 50,000 nM. The protocol:
as §1, §2
As to `C=CCN(CC=C)C(=O)c1sc2nc(C)c(Cl)c(C)c2c1N`, the “Tat hybrid cell viability at 50,000 nM” value is listed as “X (X = >60%)”. Turning to `COc1ccc(C(=O)c2sc3nc(C)c(C)c(C)c3c2N)cc1OC`, the “Tat hybrid cell viability at 50,000 nM” value was “X (X = >60%)”. As to `Cc1cc(C)c2c(N)c(C(=O)NCC(=O)O)sc2n1`, the “Tat hybrid cell viability at 50,000 nM” value is “X (X = >60%)”. For the molecule `NC(=O)c1sc2nc(C34CC5CC(CC(C5)C3)C4)ccc2c1N`, the “Tat hybrid cell viability at 50,000 nM” value is recorded as “X (X = >60%)”. On the same count and under the same terms, to `NC(=O)c1sc2nc3c(cc2c1N)C(=O)CCC3` belongs “X (X = >60%)”; to `NC(=O)c1sc2[nH]c(=O)c(C(=O)O)cc2c1N`, “X (X = >60%)”. For `NC(=O)c1sc2nc(-c3ccc4c(c3)OCCO4)cc(C(F)(F)F)c2c1N`, the “Tat hybrid cell viability at 50,000 nM” value was “X (X = >60%)”. Same read-out and setting: to `Cc1nc2sc(C(=O)c3ccccc3)c(N)c2c(C)c1C` belongs “X (X = >60%)”. As to `NC(=O)c1sc2nc(-c3ccccc3)ccc2c1N`, the “Tat hybrid cell viability at 50,000 nM” value is reported as “X (X = >60%)”. Turning to `CN1CCc2nc3sc(C(N)=O)c(N)c3cc2C1`, the “Tat hybrid cell viability at 50,000 nM” value is reported as “X (X = >60%)”. Regarding `Cc1cc(NC(=O)c2sc3nc(C)c(C)c(C)c3c2N)no1`, the “Tat hybrid cell viability at 50,000 nM” value is on record as “X (X = >60%)”. The same measure, in the same setting: to `NC(=O)c1sc2nc3c(cc2c1N)CCCC3` belongs “X (X = >60%)”; to `Cc1nc2sc(C(=O)c3ccc(Cl)cc3)c(N)c2c(C)c1C`, “X (X = >60%)”; to `COCc1cc(C)nc2sc(C(=O)Nc3ccc(C(C)=O)cc3)c(N)c12`, “X (X = >60%)”.

For the molecule `CN(C)c1ccnc2sc(C(=O)NCc3ccccc3)c(N)c12`, the “Tat hybrid cell viability at 50,000 nM” value is on record as “Y (Y = 30-60%)”.

In the case of `NC(=O)c1sc2nc(C3CC3)cc(-c3ccc(Cl)cc3)c2c1N`, the “Tat hybrid cell viability at 50,000 nM” value was “Y (Y = 30-60%)”. The same measure, in the same setting: to `NC(=O)c1sc2nc(-c3ccccc3)cc(-c3ccccc3)c2c1N` belongs “Tat hybrid % inhibition at 5,000 nM: Z Tat hybrid cell viability at 50,000 nM: Z U1% inhibition at 10,000 nm: Z (Z = <30%)”; to `Cc1ccc(-c2cc(-c3ccc(Cl)cc3)c3c(N)c(C(N)=O)sc3n2)cc1`, “Tat hybrid % inhibition at 5,000 nM: Z Tat hybrid cell viability at 50,000 nM: Z U1% inhibition at 10,000 nm: Z (Z = <30%)”. The same measure, in the same setting: to `Cc1ccc2nc3sc(C(N)=O)c(N)c3cc2c1` belongs “X (X = >60%)”; to `CCc1ccc2nc3sc(C(N)=O)c(N)c3cc2c1`, “X (X = >60%)”; to `COc1ccc(-c2c(C(=O)Nc3ccccc3)c(C)nc3sc(C(N)=O)c(N)c23)cc1`, “X (X = >60%)”.

For the molecule `Cc1cc(C)c2cc3c(N)c(C(N)=O)sc3nc2c1`, the “Tat hybrid cell viability at 50,000 nM” value is given as “Z (Z = <30%)”. Take `NC(=O)c1sc2nc(C(F)F)cc(-c3ccco3)c2c1N`: the “Tat hybrid cell viability at 50,000 nM” value was “Y (Y = 30-60%)”. Same read-out and setting: to `NC(=O)c1sc2nc3c(cc2c1N)CCCCC3` belongs “X (X = >60%)”; to `NC(=O)c1sc2nc3c(c(-c4cccnc4)c2c1N)CCC3`, “Z (Z = <30%)”; to `Cc1cc(C)c2nc3sc(C(N)=O)c(N)c3cc2c1`, “X (X = >60%)”.

With `COc1ccc2cc3c(N)c(C(N)=O)sc3nc2c1`, the “Tat hybrid cell viability at 50,000 nM” value is “Y (Y = 30-60%)”.

As for `COc1ccc2nc3sc(C(N)=O)c(N)c3cc2c1`, the “Tat hybrid cell viability at 50,000 nM” value is “X (X = >60%)”. Same read-out and setting: then `COc1cc2cc3c(N)c(C(N)=O)sc3nc2cc1OC`, with “X (X = >60%)”. Same read-out and setting: to `CCc1nc2sc(C(N)=O)c(N)c2cc1C` belongs “X (X = >60%)”; to `CCN(CC)C(=O)c1sc2nc(C)cc(C)c2c1N`, “Y (Y = 30-60%)”; to `NC(=O)c1sc2nc3c(cc2c1N)CCC3`, “X (X = >60%)”. Same read-out and setting: then `N#Cc1cc2c(N)c(C(N)=O)sc2nc1N`, with “Z (Z = <30%)”; and `Cc1cc2cc3c(N)c(C(N)=O)sc3nc2cc1C`, with “X (X = >60%)”. Take `Cc1ccc2cc3c(N)c(C(N)=O)sc3nc2c1C`: the “Tat hybrid cell viability at 50,000 nM” value is listed as “X (X = >60%)”. The same measure, in the same setting: to `Cc1ccc(-c2cc(C(F)F)nc3sc(C(N)=O)c(N)c23)cc1` belongs “X (X = >60%)”; to `COc1ccc(NC(=O)c2sc3nc(N)c(C#N)c(-c4cccs4)c3c2N)cc1`, “X (X = >60%)”.

On to `CCOc1ccc2nc3sc(C(N)=O)c(N)c3cc2c1`, for which the “Tat hybrid cell viability at 50,000 nM” value is given as “X (X = >60%)”. The same measure, in the same setting: then `COC(=O)c1sc2nc(C)c(C)c(C)c2c1N`, with “Y (Y = 30-60%)”. Consider `CC(=O)C1=C(C)Nc2sc(C(N)=O)c(N)c2C1c1cccnc1` (centres unmarked), for which the “Tat hybrid cell viability at 50,000 nM” value was “X (X = >60%)”. As for `COCc1cc(C)nc2sc(C(=O)OC)c(N)c12`, the “Tat hybrid cell viability at 50,000 nM” value is “X (X = >60%)”. The same measure, in the same setting: to `NC(=O)c1sc2nc(-c3cccs3)cc(C(F)(F)F)c2c1N` belongs “Y (Y = 30-60%)”.

On to `NC(=O)c1sc2nc(C3CC3)cc(-c3ccccc3)c2c1N`, for which the “Tat hybrid cell viability at 50,000 nM” value was “X (X = >60%)”.

Turning to `COc1ccc(-c2c(C#N)c(N)nc3sc(C(N)=O)c(N)c23)cc1OC`, the “Tat hybrid cell viability at 50,000 nM” value is “Y (Y = 30-60%)”. Consider `COc1ccc(-c2c3c(nc4sc(C(N)=O)c(N)c24)CCCC3)cc1`, for which the “Tat hybrid cell viability at 50,000 nM” value is on record as “X (X = >60%)”. Same read-out and setting: to `NC(=O)c1sc2nc(-c3ccccc3)cc(C(F)(F)F)c2c1N` belongs “X (X = >60%)”.

With `N#Cc1c(N)nc2sc(C(N)=O)c(N)c2c1-c1ccc(Br)cc1`, the “Tat hybrid cell viability at 50,000 nM” value was “X (X = >60%)”. For the molecule `COCc1cc(C)c2c(N)c(C(N)=O)sc2n1`, the “Tat hybrid cell viability at 50,000 nM” value is given as “Y (Y = 30-60%)”. As to `N#Cc1c(N)nc2sc(C(=O)Nc3ccc(Cl)cc3)c(N)c2c1-c1cccs1`, the “Tat hybrid cell viability at 50,000 nM” value is “X (X = >60%)”.

Consider `COc1ccc(-c2cc(-c3ccc(Cl)cc3)c3c(N)c(C(N)=O)sc3n2)cc1`, for which the “Tat hybrid cell viability at 50,000 nM” value is “X (X = >60%)”. As to `N#Cc1c(N)nc2sc(C(=O)Nc3ccc(Br)cc3)c(N)c2c1-c1cccs1`, the “Tat hybrid cell viability at 50,000 nM” value was “X (X = >60%)”. For the molecule `COCc1cc(C)nc2sc(C(=O)c3ccc(Cl)cc3)c(N)c12`, the “Tat hybrid cell viability at 50,000 nM” value is given as “X (X = >60%)”. Still for that read-out and setting: then `COCc1cc(C)nc2sc(C(=O)Nc3ccc(NC(C)=O)cc3)c(N)c12`, with “X (X = >60%)”. On the same count and under the same terms, then `NC(=O)c1sc2nc(C(F)F)cc(-c3ccccc3)c2c1N`, with “X (X = >60%)”; and `COCc1cc(C)nc2sc(C(=O)N3CCOCC3)c(N)c12`, with “Y (Y = 30-60%)”. On the same count and under the same terms, then `NC(=O)c1sc2nc(-c3ccc(Cl)cc3)cc(-c3ccc(Cl)cc3)c2c1N`, with “X (X = >60%)”. `NC(=O)c1sc2nc(-c3ccc(F)cc3)cc(-c3ccccc3)c2c1N`: the “Tat hybrid cell viability at 50,000 nM” value is reported as “X (X = >60%)”. Still for that read-out and setting: then `COCc1cc(C)nc2sc(C(=O)Nc3cc(C)ccc3F)c(N)c12`, with “X (X = >60%)”; and `CCc1nnc(NC(=O)c2sc3nc(C)cc(COC)c3c2N)s1`, with “X (X = >60%)”; and `NNC(=O)c1sc2ncccc2c1N`, with “X (X = >60%)”. `N#Cc1c(N)nc2sc(C(=O)Nc3ccccc3)c(N)c2c1-c1cccs1`: the “Tat hybrid cell viability at 50,000 nM” value is “X (X = >60%)”. Take `CC(=O)C1=C(C)Nc2sc(C(N)=O)c(N)c2C1c1ccccc1` (centres unmarked): the “Tat hybrid cell viability at 50,000 nM” value was “Y (Y = 30-60%)”. The same measure, in the same setting: to `Cc1ccc2c(N)c(C(N)=O)sc2n1` [drawing 227] belongs “X (X = >60%)”; to `COc1ccc(-c2cc(-c3ccccc3)nc3sc(C(N)=O)c(N)c23)cc1` [drawing 256], “X (X = >60%)”. On the same count and under the same terms, then `COc1ccc(-c2cc(-c3ccccc3)nc3sc(C(N)=O)c(N)c23)cc1` [drawing 268], with “Y (Y = 30-60%)”; and `Cc1ccc2c(N)c(C(N)=O)sc2n1` [drawing 277], with “X (X = >60%)”.
